In publication PMC6105845, “Nucleotide Prodrug Containing a Nonproteinogenic Amino Acid To Improve Oral Delivery of a Hepatitis C Virus Treatment” (Antimicrobial Agents and Chemotherapy, 2018):

Legend:
CES1 = target: T1, CES1 (Homo sapiens, UniProt P23141); assay: Ester cleavage by CES1; type: biochemical
T1 construct: purchased R&D Systems (Minneapolis, MN)
T1 sequence (P23141 18-567): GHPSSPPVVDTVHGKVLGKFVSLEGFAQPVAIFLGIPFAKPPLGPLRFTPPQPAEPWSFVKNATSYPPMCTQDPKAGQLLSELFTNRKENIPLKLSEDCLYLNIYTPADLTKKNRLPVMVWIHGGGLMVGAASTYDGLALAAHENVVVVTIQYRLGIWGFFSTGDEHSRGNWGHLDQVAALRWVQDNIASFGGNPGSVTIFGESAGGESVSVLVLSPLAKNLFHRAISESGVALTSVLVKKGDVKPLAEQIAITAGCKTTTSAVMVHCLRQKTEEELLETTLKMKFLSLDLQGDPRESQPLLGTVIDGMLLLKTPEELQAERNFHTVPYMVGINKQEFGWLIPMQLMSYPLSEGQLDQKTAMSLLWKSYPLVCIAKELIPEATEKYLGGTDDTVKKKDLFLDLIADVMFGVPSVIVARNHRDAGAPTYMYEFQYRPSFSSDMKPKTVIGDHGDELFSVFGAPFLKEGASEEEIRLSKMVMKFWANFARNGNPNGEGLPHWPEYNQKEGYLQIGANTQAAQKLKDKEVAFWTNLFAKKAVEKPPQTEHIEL
Procedure: Biochemical assays studying prodrug cleavage have been described previously ([8]). In brief, the cleavages of GS2 by CATA, CES1, CES2, and HINT1 were assessed in vitro. The reaction substrates and products were monitored over time by high-performance liquid chromatography (HPLC).

[1] = Metabolic stability in intestinal S9 fraction, monkey; type: in vitro ADME; conditions: monkey (cynomolgus)
Procedure: (§1) Blood plasma and S9 stability was studied as described previously ([8]). In brief, the compounds were incubated at 2 μM in hamster, rat, dog, monkey, or human plasma samples for up to 4 h at 37°C. For S9 stability, the compounds were incubated at 2 μM in hamster, rat, dog, monkey, or human intestinal and hepatic S9 fractions for up to 90 min at 37°C in the presence of NADPH and uridine 5′-diphosphoglucuronic acid trisodium salt (UDPGA) (Sigma-Adrich). The samples were analyzed by liquid chromatography coupled to triple-quadrupole mass spectrometry (LC-MS/MS).
(§2) The data (analyte-to-internal standard peak area ratio) were plotted on a semilog scale and fitted using an exponential fit. The half-life (t1/2) was determined assuming first-order kinetics.

HCV GT1b replicon = assay: HCV GT1b replicon, transiently transfected Huh-1C cells; type: cell-based, hepatitis C virus; conditions: for EC50: Hepatitis C virus, GT1B, 72 h
Procedure: (§3) GT1a, GT1b, and GT2a are authentic subgenomic replicons of the indicated strain. Creation of these HCV replicons was reported previously ([7]).
(§4) RNA was transcribed in vitro using a MEGAscript […] kit (Ambion, Austin, TX) and transfected into Huh-Lunet and −1C cells using published methods ([21], [22]).
(§5) The EC50s, defined as the concentration at which there was a measured 50% decrease in HCV replicon level, were determined in replicon assay as previously described ([24]). Briefly, replicon cells were seeded into 96-well plates. Compounds were serially diluted in DMSO at 200× final concentrations and then added to the assay plate. Luciferase expression was quantified after 3 days of incubation using a commercial luciferase assay (Promega, Madison, WI). Data were analyzed using GraphPad Prism 6.0 (La Jolla, CA).
(§6) X represents log of compound concentration and Y represents replicon replication as the percentage of DMSO control. EC50s were calculated as an average from at least three independent experiments.

[2] = Metabolic stability in intestinal S9 fraction, hamster; type: in vitro ADME
Procedure: as §1, §2

[3] = system: HCV GT1a, GT1b and GT2a replicons; assay: HCV replicons GT1a, GT1b, GT2a in Huh-1C cells, summary across genotypes; type: cell-based, hepatitis C virus
Procedure: as §3, §4, §5, §6

[4] = system: chimeric HCV replicons GT2b, GT3a, GT4a, GT5a, GT6a; assay: Chimeric replicons with NS5b of GT2b, GT3a, GT4a, GT5a, GT6a in GT1b background, transiently transfected Huh-1C cells; type: cell-based, hepatitis C virus
[5] = CES1, GS-6620-containing diastereomeric mixture was used

SMILES	3′-Ester cleavage, specific activity (CES1; [5])	Amidate ester cleavage, specific activity (CES1; [5])	half-life at 2 μM [1]	EC50 (HCV GT1b replicon)	half-life at 2 μM [2]	CES1 hydrolysis more efficient than GS-6620 (CES1; isopropyl ester cleavage)	potency relative to the fast-eluting isomer (more potent) ([3]; GT1a, 1b, 2a, Huh-1C)	activity relative to GS-6620, average across the three genotypes ([3]; Huh-1C cells)	EC50 ([4]; Hepatitis C virus, read-out: potency)	relative potency to GS-6620 ([4]; chimeric replicons GT2b-GT6a, Huh-1C)	Fold (GS2/GS-6620) (HCV GT1b replicon; EC50 ratio, GT1b, Huh-1C)
CC(C)OC(=O)[C@H](C)N[P@](=O)(OC[C@H]1O[C@@](C#N)(c2ccc3c(N)ncnn23)[C@](C)(O)[C@@H]1OC(=O)C(C)C)Oc1ccccc1 [GS-6620, reference compound]	1.6 pmol/min/µg	1.9 pmol/min/µg	0.0933 h	35 ± 15 nM	< 0.0333 h						
CC(C)OC(=O)C(C)(C)N[P@](=O)(OC[C@H]1O[C@@](C#N)(c2ccc3c(N)ncnn23)[C@](C)(O)[C@@H]1O)Oc1ccccc1 [GS2]		91.0 pmol/min/µg	3.83 h	110 ± 20 nM	1.12 h	48 fold	approximately 4 fold	≤ 3 fold	91 to 158 nM	≤ 2 fold	3.1
